Values of other authors as cited in EP0209897A2, “Peptide enzyme inhibitors” (Merck & Co., Inc., priority 1985, dated 1987).

Tested on: hog renin
Settings: after the injection of hog renin into nephrectomized rats; Gross et al., Science 175:656, 1971

Pepstatin
blood pressure in vivo: reduce blood pressure
